This experiment has as its target Cyclin-dependent kinase 12 (Homo sapiens, UniProt Q9NYV4). Briefly: Not found.
Text: Not found

What is called IC50 is the concentration that gives 50% inhibition.

Cyclin-dependent kinase 12, sequence (Q9NYV4 whole entry): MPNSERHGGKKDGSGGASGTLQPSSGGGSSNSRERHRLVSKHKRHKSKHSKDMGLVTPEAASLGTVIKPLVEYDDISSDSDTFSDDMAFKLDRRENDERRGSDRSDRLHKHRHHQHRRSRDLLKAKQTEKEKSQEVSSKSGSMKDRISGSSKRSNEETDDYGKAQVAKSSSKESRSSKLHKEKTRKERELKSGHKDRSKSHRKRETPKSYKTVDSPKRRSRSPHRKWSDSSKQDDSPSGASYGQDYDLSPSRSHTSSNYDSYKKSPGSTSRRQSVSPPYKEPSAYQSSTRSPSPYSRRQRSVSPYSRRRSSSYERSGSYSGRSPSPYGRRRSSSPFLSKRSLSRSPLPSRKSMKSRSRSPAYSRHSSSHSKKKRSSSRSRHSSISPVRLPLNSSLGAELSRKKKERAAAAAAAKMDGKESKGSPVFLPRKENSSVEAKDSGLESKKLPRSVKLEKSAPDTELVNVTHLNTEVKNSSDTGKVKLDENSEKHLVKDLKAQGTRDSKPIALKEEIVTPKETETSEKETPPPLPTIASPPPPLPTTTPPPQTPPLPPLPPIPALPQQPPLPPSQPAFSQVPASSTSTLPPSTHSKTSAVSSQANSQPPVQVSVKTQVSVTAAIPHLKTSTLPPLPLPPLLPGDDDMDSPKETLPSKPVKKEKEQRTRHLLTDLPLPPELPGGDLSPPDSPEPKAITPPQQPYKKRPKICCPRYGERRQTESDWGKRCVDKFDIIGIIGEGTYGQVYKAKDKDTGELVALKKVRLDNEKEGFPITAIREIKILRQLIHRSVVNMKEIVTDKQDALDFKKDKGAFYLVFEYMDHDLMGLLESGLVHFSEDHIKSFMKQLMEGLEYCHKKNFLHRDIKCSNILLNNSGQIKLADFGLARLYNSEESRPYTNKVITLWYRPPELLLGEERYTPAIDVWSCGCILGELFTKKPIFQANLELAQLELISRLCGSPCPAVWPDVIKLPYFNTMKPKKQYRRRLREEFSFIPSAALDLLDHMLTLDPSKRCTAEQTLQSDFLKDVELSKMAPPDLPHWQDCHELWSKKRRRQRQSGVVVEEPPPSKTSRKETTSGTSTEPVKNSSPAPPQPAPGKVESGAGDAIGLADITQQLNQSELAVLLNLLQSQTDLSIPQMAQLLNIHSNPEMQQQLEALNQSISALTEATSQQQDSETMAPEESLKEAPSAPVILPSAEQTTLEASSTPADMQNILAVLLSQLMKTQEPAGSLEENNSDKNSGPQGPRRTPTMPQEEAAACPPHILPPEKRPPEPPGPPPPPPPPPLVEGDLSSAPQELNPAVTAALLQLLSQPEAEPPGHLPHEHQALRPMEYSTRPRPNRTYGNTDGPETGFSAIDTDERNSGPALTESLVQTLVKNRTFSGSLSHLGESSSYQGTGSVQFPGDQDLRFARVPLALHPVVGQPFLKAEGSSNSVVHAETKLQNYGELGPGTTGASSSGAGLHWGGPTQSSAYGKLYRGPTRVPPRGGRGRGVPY

`CN1CC(C2C=NN3C(NCc4nc5cc(Cl)c(Cl)cc5[nH]4)=NC(N4CCOCC4)=NC23)C=N1` (configuration not stated) [US20250042903, Compound 1]: the IC50 is 554 nM.

The molecule `FC(F)N1CC(C2C=NN3C(NCc4nc5cc(Cl)c(Cl)cc5[nH]4)=NC(N4CCOCC4)=NC23)C=N1` (configuration not stated) [US20250042903, Compound 2] returned a half-maximal inhibitory concentration (IC50) of 262 nM.
